Results from ChEMBL document CHEMBL5724696, “Autophagy assay results for EUbOPEN Chemogenomics Library” (2024).

How the values were obtained:
U2OS [1] = assay: (§1) Here: values are normalized to the negative (DMSO; defined as 0% autophagy induction) and positive (250nM Torin1; mTOR inhibitor; defined as maximal inducer of autophagy = 100%) control compounds and represented as % of autophagy induction. […] The impact of autophagy induction on cells is complex and depends on the affected target. As such, the magnitude of a phenotype may not be equally mirrored in the %-value of autophagy induction and vice versa. The dynamics of the induction may indicate the mode of activation: e.g. activation via phosphorylation or a signaling cascade may occur fast, while activation via transcription factors may take considerably longer. […] Of note, treatment concentrations may be sub-optimal for specific compounds, leading to false negative annotations.; type: functional, Homo sapiens; details: Culturing Media DMEM, 1 % Penicillin/Streptomycin, 10% Fetal bovin serum Add-On: No, Screening Media Control DMEM, Screening Media Samples DMEM
U2OS [2] = assay: as §1; type: functional, Homo sapiens; details: Culturing Media DMEM, 1 % Penicillin/Streptomycin, 10% Fetal bovin serum Add-On: No, Screening Media Control DMEM, Screening Media Samples DMEM; remark: listed apart in the source
[3] = Compound Concentration 0.5 uM, Timepoint 12 hours
[4] = Compound Concentration 0.5 uM, Timepoint 24 hours
[5] = Compound Concentration 0.5 uM, Timepoint 36 hours
[6] = Compound Concentration 0.5 uM, Timepoint 60 hours
[7] = Compound Concentration 2 uM, Timepoint 12 hours
[8] = Compound Concentration 2 uM, Timepoint 24 hours
[9] = Compound Concentration 2 uM, Timepoint 36 hours
[10] = Compound Concentration 2 uM, Timepoint 60 hours
[11] = Compound Concentration 10 uM, Timepoint 12 hours
[12] = Compound Concentration 10 uM, Timepoint 24 hours
[13] = Compound Concentration 10 uM, Timepoint 36 hours
[14] = Compound Concentration 10 uM, Timepoint 60 hours

COc1ccc(Br)cc1S(=O)(=O)NC(=O)/C=C/c1ccccc1Cc1ccc2ccccc2c1
autophagy induction (U2OS [1]; [3]): 10.8816% | autophagy induction (U2OS [1]; [4]): 4.975% | autophagy induction (U2OS [1]; [5]): 5.043% | autophagy induction (U2OS [1]; [6]): 1.1971% | autophagy induction (U2OS [1]; [7]): -3.861% | autophagy induction (U2OS [1]; [8]): -4.459% | autophagy induction (U2OS [1]; [9]): -4.477% | autophagy induction (U2OS [1]; [10]): -3.627% | autophagy induction (U2OS [1]; [11]): 11.1214% | autophagy induction (U2OS [1]; [12]): -0.228% | autophagy induction (U2OS [1]; [13]): 3.111% | autophagy induction (U2OS [1]; [14]): -1.844% | autophagy induction (U2OS [2]; [3]): 8.106% | autophagy induction (U2OS [2]; [4]): 0.9964% | autophagy induction (U2OS [2]; [5]): -0.06695% | autophagy induction (U2OS [2]; [6]): 114.397% | autophagy induction (U2OS [2]; [7]): -1.7757% | autophagy induction (U2OS [2]; [8]): -1.309% | autophagy induction (U2OS [2]; [9]): -1.876% | autophagy induction (U2OS [2]; [10]): 114.114% | autophagy induction (U2OS [2]; [11]): -6.0177% | autophagy induction (U2OS [2]; [12]): -3.111% | autophagy induction (U2OS [2]; [13]): -1.417% | autophagy induction (U2OS [2]; [14]): 114.143%

CCc1ccc(OCc2ccccc2C(=O)Nc2ccc3nc(C)cc(N)c3c2)cc1.Cl
autophagy induction (U2OS [1]; [3]): 21.0143% | autophagy induction (U2OS [1]; [4]): 14.8244% | autophagy induction (U2OS [1]; [5]): 13.2935% | autophagy induction (U2OS [1]; [6]): 10.1945% | autophagy induction (U2OS [1]; [7]): 66.4638% | autophagy induction (U2OS [1]; [8]): 63.0279% | autophagy induction (U2OS [1]; [9]): 63.192% | autophagy induction (U2OS [1]; [10]): 56.3816% | autophagy induction (U2OS [1]; [11]): 203.914% | autophagy induction (U2OS [1]; [12]): 166.946% | autophagy induction (U2OS [1]; [13]): 154.332% | autophagy induction (U2OS [1]; [14]): 150.102% | autophagy induction (U2OS [2]; [3]): 12.0081% | autophagy induction (U2OS [2]; [4]): 1.625% | autophagy induction (U2OS [2]; [5]): -0.1664% | autophagy induction (U2OS [2]; [6]): 114.695% | autophagy induction (U2OS [2]; [7]): -46.9081% | autophagy induction (U2OS [2]; [8]): -13.0517% | autophagy induction (U2OS [2]; [9]): 3.022% | autophagy induction (U2OS [2]; [10]): 113.026% | autophagy induction (U2OS [2]; [11]): 98.6173% | autophagy induction (U2OS [2]; [12]): 63.101% | autophagy induction (U2OS [2]; [13]): 54.8449% | autophagy induction (U2OS [2]; [14]): 109.07%

O=C1O[C@]2(CC[C@H](C(=O)Nc3ccn(-c4ccccc4F)n3)CC2)c2cnccc21 [MK-0557]
autophagy induction (U2OS [1]; [3]): 2.719% | autophagy induction (U2OS [1]; [4]): -3.33% | autophagy induction (U2OS [1]; [5]): -1.0176% | autophagy induction (U2OS [1]; [6]): -10.434% | autophagy induction (U2OS [1]; [7]): 13.2836% | autophagy induction (U2OS [1]; [8]): 10.9196% | autophagy induction (U2OS [1]; [9]): 6.623% | autophagy induction (U2OS [1]; [10]): 2.549% | autophagy induction (U2OS [1]; [11]): 4.4586% | autophagy induction (U2OS [1]; [12]): 4.355% | autophagy induction (U2OS [1]; [13]): 0.9374% | autophagy induction (U2OS [1]; [14]): -12.6304% | autophagy induction (U2OS [2]; [3]): 3.984% | autophagy induction (U2OS [2]; [4]): 1.732% | autophagy induction (U2OS [2]; [5]): 0.4919% | autophagy induction (U2OS [2]; [6]): 114.165% | autophagy induction (U2OS [2]; [7]): 0.04111% | autophagy induction (U2OS [2]; [8]): -0.7319% | autophagy induction (U2OS [2]; [9]): -2.648% | autophagy induction (U2OS [2]; [10]): 114.407% | autophagy induction (U2OS [2]; [11]): 2.947% | autophagy induction (U2OS [2]; [12]): -1.736% | autophagy induction (U2OS [2]; [13]): -2.592% | autophagy induction (U2OS [2]; [14]): 114.447%

Cl.Cl.Cl.c1ccc(N2CCN(Cc3nc4ccccc4[nH]3)CC2)nc1
autophagy induction (U2OS [1]; [3]): 6.453% | autophagy induction (U2OS [1]; [4]): 3.88% | autophagy induction (U2OS [1]; [5]): 1.316% | autophagy induction (U2OS [1]; [6]): -5.738% | autophagy induction (U2OS [1]; [7]): 16.1665% | autophagy induction (U2OS [1]; [8]): 12.3628% | autophagy induction (U2OS [1]; [9]): 4.3069% | autophagy induction (U2OS [1]; [10]): -1.986% | autophagy induction (U2OS [1]; [11]): 1.702% | autophagy induction (U2OS [1]; [12]): -2.316% | autophagy induction (U2OS [1]; [13]): -1.149% | autophagy induction (U2OS [1]; [14]): 1.595% | autophagy induction (U2OS [2]; [3]): -5.698% | autophagy induction (U2OS [2]; [4]): -1.19% | autophagy induction (U2OS [2]; [5]): -1.541% | autophagy induction (U2OS [2]; [6]): -2680.35% | autophagy induction (U2OS [2]; [7]): -2.768% | autophagy induction (U2OS [2]; [8]): -5.039% | autophagy induction (U2OS [2]; [9]): -4.313% | autophagy induction (U2OS [2]; [10]): -2193.41% | autophagy induction (U2OS [2]; [11]): 1.805% | autophagy induction (U2OS [2]; [12]): -0.2364% | autophagy induction (U2OS [2]; [13]): -2.475% | autophagy induction (U2OS [2]; [14]): 114.324%
